{
  "source": "patent US20140120190A1",
  "about": "“METHODS OF PREPARING PRICKLY-ASH PEEL EXTRACTS AND COSMETIC COMPOSITIONS INCORPORATING PRICKLY-ASH PEEL EXTRACTS” (priority 2012, published 2014)",
  "key": {"NF-κB gene": {"test_system": "NF-κB gene", "assay": "Blocking of NF-κB gene expression"}, "skin": {"test_system": "skin", "assay": "Effects on skin at the tissue level (collagen, elastin, hair follicles, senile plaques)"}, "Antioxidant effect": {"assay": "Antioxidant effect", "source_text": "At the same time, the molecular weight of gx-50 is so small that gx-50 is more easily absorbed via the skin."}},
  "data": [
    {"smiles": "COc1ccc(CCNC(=O)/C=C/c2ccccc2)cc1OC", "note": "[gx-50]", "values": [
      {"measurement": "expression of the NF-κB gene", "setting": "NF-κB gene", "value": "effectively blocks the expression of the NF-κB gene"},
      {"measurement": "loss of collagen and elastin in skin", "setting": "skin", "value": "helps prevent the loss of collagen and elastin in skin"},
      {"measurement": "antioxidant effect", "setting": "Antioxidant effect", "value": "possessing an antioxidant effect"}
    ]}
  ]
}
